According to the supplement of paper PMC10307832:

Legend:
Experiment in all cases: relative viability (nuclei count vs DMSO), 5 days (fraction); higher = more cells survive
Trametinib + AZD7762 = compound: CC(=O)Nc1cccc(-n2c(=O)n(C3CC3)c(=O)c3c(Nc4ccc(I)cc4F)n(C)c(=O)c(C)c32)c1 [Trametinib] + NC(=O)Nc1cc(-c2cccc(F)c2)sc1C(=O)N[C@H]1CCCNC1 [AZD7762] (partner 0.2 µM)
How it was run: (§1)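 Each reported value is a median over duplicate plates. It expresses relative viability: treated-well nuclei count divided by vehicle-well nuclei count. Lung cancer cell lines in 1536-well plates were dosed by pin tool a day after seeding, alone with one drug or with a fixed anchor-drug dose plus five library-drug doses (not always all listed) in √10 steps, and nuclei were counted after 5 days.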

Trametinib + Bortezomib = compound: CC(=O)Nc1cccc(-n2c(=O)n(C3CC3)c(=O)c3c(Nc4ccc(I)cc4F)n(C)c(=O)c(C)c32)c1 [Trametinib] + CC(C)C[C@H](NC(=O)[C@H](Cc1ccccc1)NC(=O)c1cnccn1)B(O)O [Bortezomib] (partner 0.002 µM)
How it was run: as §1

Trametinib + Crizotinib = compound: CC(=O)Nc1cccc(-n2c(=O)n(C3CC3)c(=O)c3c(Nc4ccc(I)cc4F)n(C)c(=O)c(C)c32)c1 [Trametinib] + C[C@@H](Oc1cc(-c2cnn(C3CCNCC3)c2)cnc1N)c1c(Cl)ccc(F)c1Cl [Crizotinib] (partner 1 µM)
How it was run: as §1

[1] = compound: CN1C=C(C2=CC=CC=C21)/C=C\3/C4=C(C=CC=N4)NC3=O + Cc1cc(Nc2cc(N3CCN(C)CC3)nc(Sc3ccc(NC(=O)C4CC4)cc3)n2)n[nH]1 [Tozasertib] (partner 0.1 µM)
How it was run: as §1

Cell Line	relative viability (Trametinib + AZD7762; first compound 0.0025 µM)	relative viability (Trametinib + AZD7762; first compound 0.007906 µM)	relative viability (Trametinib + AZD7762; first compound 0.025 µM)	relative viability (Trametinib + AZD7762; first compound 0.07906 µM)	relative viability (Trametinib + AZD7762; first compound 0.25 µM)	relative viability (Trametinib + Bortezomib; first compound 0.0025 µM)	relative viability (Trametinib + Bortezomib; first compound 0.007906 µM)	relative viability (Trametinib + Bortezomib; first compound 0.025 µM)	relative viability (Trametinib + Bortezomib; first compound 0.07906 µM)	relative viability (Trametinib + Bortezomib; first compound 0.25 µM)	relative viability (Trametinib + Crizotinib; first compound 0.0025 µM)	relative viability (Trametinib + Crizotinib; first compound 0.007906 µM)	relative viability (Trametinib + Crizotinib; first compound 0.025 µM)	relative viability (Trametinib + Crizotinib; first compound 0.07906 µM)	relative viability (Trametinib + Crizotinib; first compound 0.25 µM)	relative viability ([1]; first compound 0.02 µM)	relative viability ([1]; first compound 0.06325 µM)	relative viability ([1]; first compound 0.2 µM)	relative viability ([1]; first compound 0.6325 µM)	relative viability ([1]; first compound 2 µM)
ChaGo-K-1	0.909	0.859	0.793	0.781	0.807	1.12	0.871	1.05	0.713	0.476	1.13	1.07	1.1	1.01	0.761	0.194	0.221	0.212	0.214	0.201
NCI-H441	1.15	0.972	0.734	0.658	0.618	0.474	0.55	0.72	0.475	0.17	0.757	0.691	0.608	0.448	0.294	0.67	0.607	0.651	0.572	0.567
PC-14	0.354	0.274	0.224	0.193	0.203	0.918	0.834	0.673	0.76	0.594	0.994	0.909	0.815	0.686	0.55	0.564	0.525	0.585	0.553	0.541
NCI-H1437	1.13	0.981	0.625	0.466	0.454	0.463	0.257	0.179	0.205	0.174	0.952	0.883	0.572	0.373	0.472	0.39	0.427	0.417	0.438	0.463
NCI-H647	0.543	0.3	0.262	0.174	0.165	0.853	0.75	0.652	0.654	0.294	0.961	1.04	0.746	0.671	0.572	0.327	0.345	0.206	0.321	0.215
NCI-H2087	1.26	1.38	0.633	0.313	0.324	0.899	0.669	0.446	0.327	0.129	0.888	0.667	0.495	0.33	0.289	0.227	0.245	0.249	0.189	0.212
BEN	0.703	0.652	0.412	0.525	0.635	0.76	0.725	–	0.531	0.657	0.794	0.825	–	0.717	0.81	0.475	0.445	0.443	0.634	0.761
NCI-H3122	0.947	0.642	0.292	0.361	0.308	0.985	0.74	0.595	0.432	0.361	0.238	0.228	0.221	0.199	0.209	0.37	0.343	–	0.398	0.49
